Measurements reported in patent US20230002324A1, “NAPHTHOQUINONE DERIVATIVES FOR TREATMENT OF OXIDATIVE STRESS DISORDERS” (PTC THERAPEUTICS, INC., priority 2019, published 2023).
pEC50: −log10 of the molar value.

Legend:
CYP3A4 = molecular target: T1, CYP3A4 (Homo sapiens, UniProt P08684); assay: CYP450 Inhibition Assay 2 (pooled human liver microsomes, 5 concentrations); type: in vitro ADME; conditions: Table 3, HLM 0.05 mg protein/mL, 10 min reaction; for IC50 at 10 min: human, pooled human liver microsomes
T1 construct: from tissue; host or cells: pooled human liver microsomes
Method: In an alternative experimental design, test compounds were evaluated at 5 concentrations in a 96 well assay plate. Initial combination with pooled human liver microsomes (0.05 mg protein/mL) was followed by a 5 minute incubation. […] The assay plate was incubated for an additional 30 minutes before the reaction was initiated with the addition of NADPH. After 10 minutes of reaction time, the reaction was quenched and samples were analyzed in a similar manner as described above.

[1] = tested on: Q7 cells (ST HDH Q7/7; immortalized mouse striatal cells); assay: Q7 Cystine Deprivation cell survival (rescue) assay; type: cell-based; conditions: Q7 cells, cystine-free medium, 18 h, Cell Titer Glo, 50% relative viability vs Vitamin K2 (1 micromolar), read-out: Q7 Cystine Deprivation Survival EC50
How it was run: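 Cells were seeded at 3,000/well and allowed to attach for 5 h at 33 °C. Wells were then washed twice with PBS and switched to cystine-free DMEM containing FBS, 4 mM L-glutamine, 1 mM pyruvate and 30 mg/L methionine to induce ferroptotic death. Compounds were scored for survival rescue.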

[2] = tested on: normal human fibroblasts (NHF, GM21811); assay: NHF GM21811 RSL3 challenge cell survival (rescue) assay; type: cell-based; conditions: Fibroblast, NHF cells, RSL3 2 micromolar, 48 h, Cell Titer Glo, read-out: NHF GM21811 RSL3 Survival EC50
How it was run: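 Q7 (33° C.) or NHF (37° C.) cells, 3,000/well, attached 5 h, then test compounds at varying final concentrations followed within 15 min by RSL3 (2 micromolar final); 0.3% DMSO. Assay medium identical to growth medium.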

[3] = tested on: Q7 cells (ST HDH Q7/7; immortalized mouse striatal cells); assay: Q7 RSL3 challenge cell survival (rescue) assay; type: cell-based; conditions: Q7 cells, RSL3 2 micromolar, 18 h, Cell Titer Glo, read-out: Q7 RSL3 Survival EC50
Excerpt: In neuronal cells excess extracellular glutamate inhibits the cystine/glutamate antiporter leading to intracellular cysteine depletion, GSH depletion, reactive oxygen species (ROS) production and cell death, a phenomenon termed oxidative glutamate toxicity, oxytosis, or ferroptosis. […] Q7 cells (ST HDH Q7/7; immortalized mouse striatal cells) challenged with cystine-free media or the selective, irreversible GPX4 inhibitor, methyl (1S,3R)-2-(2-chloroacetyl)-1-(4-(methoxycarbonyl)phenyl)-2,3,4,9-tetrahydro-1H-pyrido[3,4-b]indole-3-carboxylate (hereafter referred to as RSL3), recapitulate this phenotype, as do normal human fibroblasts (NHF) challenged with RSL3. An initial screen was performed to identify compounds effective in rescuing Q7 and/or NHF cells from death resulting from cystine deprivation or RSL3 challenge. This method is further described in Yonezawa et al., J. Neurochem 67, 566-573 (1996), Li et al., J Neurosci., 23, 5816-5826 (2003), Yang and Stockwell, Chem Biol., 15: 234-45 (2008), and Yang et al., Cell 156, 317-331 (2014). See also Hinman A, Holst C R, Latham J C, et al. Vitamin E hydroquinone is an endogenous regulator of ferroptosis via redox control of 15-lipoxygenase. PLoS One. 2018; 13(8):e0201369. Published 2018 Aug. 15. doi:10.1371/journal.pone.0201369; and Kahn-Kirby A H, Amagata A, Maeder C I, et al. Targeting ferroptosis: A novel therapeutic strategy for the treatment of mitochondrial disease-related epilepsy. PLoS One. 2019; 14(3):e0214250. Published 2019 Mar. 28. doi:10.1371/journal.pone.0214250.
DMEM (Catalog no. 11995-040), DMEM without Cystine (Catalog no. 21013-024), DMEM without Glucose (Catalog A1443001), PBS (Phosphate buffered saline), Penicillin-streptomycin mix, L-Glutamine, Glucose, Phenol Red, and Pyruvate were purchased from ThermoFisher Scientific (Gibco). Fetal Bovine Serum was obtained from Mediatech, Inc., or Sigma Aldrich. Mouse striatum derived ST HDH Q7/7 (Q7) and normal human skin fibroblast (NHF, product number GM21811) cells were obtained from the Coriell Institute. Methionine and Vitamin K2 were purchased from Sigma Aldrich. RSL3 was synthesized as previously described (see e.g. US Patent Publication US2010/0081654). Cell Titer Glo 2.0 was purchased from Promega. Q7 cell culture medium (Q7 growth medium) was made by combining 50 mL Fetal Bovine Serum, 100 U/mL penicillin, and 100 microgram/mL streptomycin; DMEM was added to make the volume up to 500 mL. Assay medium for the Cystine Deprivation assay was prepared by combining 50 mL Fetal Bovine Serum, 100 U/mL penicillin, 100 microgram/mL streptomycin, 4 mM L-Glutamine, 1 mM Pyruvate and 30 mg/L Methionine; DMEM without Cystine was added to make the volume up to 500 mL. NHF cell culture medium (NHF growth medium) was made by combining 50 mL Fetal Bovine Serum, 100 U/mL penicillin, 100 microgram/mL streptomycin, 2.8 mL 20% Glucose solution (final concentration 6 mM), L-glutamine (final concentration 2 mM), phenol red (final concentration 15 mg/L); DMEM without Glucose was added to make the volume up to 500 mL. Assay medium for the RSL3 challenge assay was identical to Growth medium. While not in use during the course of the experiments, these solutions were stored at 4° C. The cells were grown in 150-cm^2 tissue culture-treated flasks. Every third or fourth day, the cells were sub-cultured by trypsinization and re-seeded at a cell density of 600,000 (Q7) or 300,000 (NHF) cells per flask.
Q7 or NHF cells were cultured routinely as described herein. For 384-well cell survival assays, cells were seeded in clear bottom, black wall 384-well tissue culture-treated polystyrene plates by re-suspending a cell suspension at a density of 50,000 cells/mL in growth medium, then dispensing 60 microliters of cell suspension per well using either an electronic multichannel pipette or a Multidrop™ Combi Reagent Dispenser (ThermoFisher Scientific), corresponding to 3,000 cells/well. […]

T1 sequence (P08684 whole entry): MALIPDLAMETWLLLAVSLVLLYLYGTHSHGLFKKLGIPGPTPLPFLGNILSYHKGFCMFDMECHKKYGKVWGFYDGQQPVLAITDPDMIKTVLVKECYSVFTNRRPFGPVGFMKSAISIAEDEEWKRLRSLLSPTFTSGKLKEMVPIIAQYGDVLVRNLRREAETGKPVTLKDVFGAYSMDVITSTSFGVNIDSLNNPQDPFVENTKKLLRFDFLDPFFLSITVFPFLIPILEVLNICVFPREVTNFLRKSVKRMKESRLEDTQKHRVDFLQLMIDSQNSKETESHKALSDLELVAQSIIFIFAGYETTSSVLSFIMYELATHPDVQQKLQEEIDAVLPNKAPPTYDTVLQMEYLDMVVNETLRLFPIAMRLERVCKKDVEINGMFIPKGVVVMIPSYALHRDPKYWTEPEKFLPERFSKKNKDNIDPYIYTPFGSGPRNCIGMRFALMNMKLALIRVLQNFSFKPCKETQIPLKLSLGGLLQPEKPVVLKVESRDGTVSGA

SMILES	IC50 at 10 min (CYP3A4) [µM]	pEC50 [1]	IC50 (CYP3A4) [µM]	pEC50 [2]	pEC50 [3]
CC1=C(Cc2ncccc2C(F)(F)F)C(=O)c2ccccc2C1=O [Example 39, 2-methyl-3-((3-(trifluoromethyl)pyridin-2-yl)methyl)naphthalene-1,4-dione]	≥ 50	> 7.30	–	–	–
CC1=C(Cc2cc(C(F)(F)F)ccn2)C(=O)c2ccccc2C1=O [Example 9, 2-methyl-3-((4-(trifluoromethyl)pyridin-2-yl)methyl)naphthalene-1,4-dione]	–	> 7.30	37.2	–	–
CC1=C(Cc2ccc(C(=O)O)cn2)C(=O)c2ccccc2C1=O [Example 99, 6-((3-methyl-1,4-dioxo-1,4-dihydronaphthalen-2-yl)methyl)nicotinic acid]	≥ 50	< 6.00	–	–	–
CC1=C(Cc2ccc(C(F)(F)F)cn2)C(=O)c2c(F)ccc(F)c2C1=O [Example 52, 5,8-difluoro-2-methyl-3-((5-(trifluoromethyl)pyridin-2-yl)methyl)naphthalene-1,4-dione]	–	> 7.30	–	> 7.30	> 7.30
CC1=C(Cc2ccc(C(F)F)cn2)C(=O)c2ccccc2C1=O [Example 20, 2-((5-(difluoromethyl)pyridin-2-yl)methyl)-3-methylnaphthalene-1,4-dione]	–	> 7.30	–	> 7.30	> 7.30
CCCC1=C(Cc2ccc(C(F)(F)F)cn2)C(=O)c2ccccc2C1=O [Example 109, 2-propyl-3-((5-(trifluoromethyl)pyridin-2-yl)methyl)naphthalene-1,4-dione]	–	> 7.30	15.6	–	–
CCN(C(=O)c1ccc(CC2=C(C)C(=O)c3ccccc3C2=O)nc1)C(C)C [Example 102, N-ethyl-N-isopropyl-6-((3-methyl-1,4-dioxo-1,4-dihydronaphthalen-2-yl)methyl)nicotinamide]	–	> 7.30	8.8	–	–
CC1=C(Cc2ccc(F)cn2)C(=O)c2ccc(F)cc2C1=O [Example 48, 6-fluoro-2-((5-fluoropyridin-2-yl)methyl)-3-methylnaphthalene-1,4-dione]	–	> 7.30	–	> 7.30	> 7.30
Cc1ccc(CC2=C(CCC3COC3)C(=O)c3ccccc3C2=O)nc1 [Example 122, 2-((5-methylpyridin-2-yl)methyl)-3-(2-(oxetan-3-yl)ethyl)naphthalene-1,4-dione]	–	> 7.30	–	6.60 to 7.30	> 7.30
CC1=C(Cc2ccc(C(N)=O)cn2)C(=O)c2ccccc2C1=O [Example 101, 6-((3-methyl-1,4-dioxo-1,4-dihydronaphthalen-2-yl)methyl)nicotinamide]	–	> 7.30	23	–	–
O=C1C(Cc2ccc(C(F)(F)F)cn2)=C(C2CC2)C(=O)c2ccccc21 [Example 27, 2-cyclopropyl-3-((5-(trifluoromethyl)pyridin-2-yl)methyl)naphthalene-1,4-dione]	–	> 7.30	11.9	–	–
CC(C)CC1=C(Cc2ccc(C(F)(F)F)cn2)C(=O)c2ccccc2C1=O [Example 29, 2-isobutyl-3-((5-(trifluoromethyl)pyridin-2-yl)methyl)naphthalene-1,4-dione]	–	> 7.30	21.4	–	–
CC1=C(Cc2ccc(C(=O)NCC3CC3)cn2)C(=O)c2ccccc2C1=O [Example 105, N-(cyclopropylmethyl)-6-((3-methyl-1,4-dioxo-1,4-dihydronaphthalen-2-yl)methyl)nicotinamide]	≥ 50	6.60 to 7.30	–	–	–
CC1=C(Cc2ccc(C(=O)N(C)C(C)C)cn2)C(=O)c2ccccc2C1=O [Example 104, N-isopropyl-N-methyl-6-((3-methyl-1,4-dioxo-1,4-dihydronaphthalen-2-yl)methyl)nicotinamide]	–	> 7.30	20.7	–	–
CC1=C(Cc2ccc(C#N)cn2)C(=O)c2ccccc2C1=O [Example 123, 6-((3-methyl-1,4-dioxo-1,4-dihydronaphthalen-2-yl)methyl)nicotinonitrile]	≥ 50	> 7.30	–	–	–
CC(C)(C)CC1=C(Cc2ccc(C(F)(F)F)cn2)C(=O)c2ccccc2C1=O [Example 28, 2-neopentyl-3-((5-(trifluoromethyl)pyridin-2-yl)methyl)naphthalene-1,4-dione]	≥ 50	6.60 to 7.30	–	–	–
CCCC1=C(Cc2ccc(F)cn2)C(=O)c2ccccc2C1=O [Example 116, 2-((5-fluoropyridin-2-yl)methyl)-3-propylnaphthalene-1,4-dione]	–	> 7.30	–	> 7.30	> 7.30
CC1=C(Cc2ccc(C(=O)NC3(C)CCC3)cn2)C(=O)c2ccccc2C1=O [Example 103, 6-((3-methyl-1,4-dioxo-1,4-dihydronaphthalen-2-yl)methyl)-N-(1-methylcyclobutyl)nicotinamide]	–	6.00 to 6.60	41.5	–	–
CC1=C(Cc2ccc(C(=O)NC3CCCC3)cn2)C(=O)c2ccccc2C1=O [Example 100, N-cyclopentyl-6-((3-methyl-1,4-dioxo-1,4-dihydronaphthalen-2-yl)methyl)nicotinamide]	≥ 50	6.60 to 7.30	–	–	–
CC1(C2=C(Cc3ccc(C(F)(F)F)cn3)C(=O)c3ccccc3C2=O)CC1 [Example 31, 2-(1-methylcyclopropyl)-3-((5-(trifluoromethyl)pyridin-2-yl)methyl)naphthalene-1,4-dione]	–	> 7.30	17.4	–	–
CC1=C(C(C)c2ccccn2)C(=O)c2ccccc2C1=O (centres unmarked) [Example 24, 2-methyl-3-(1-(pyridin-2-yl)ethyl)naphthalene-1,4-dione]	–	> 7.30	20.1	–	–
O=C1C(CCC2COC2)=C(Cc2ccc(C(F)(F)F)cn2)C(=O)c2ccccc21 [Example 33, 2-(2-(oxetan-3-yl)ethyl)-3-((5-(trifluoromethyl)pyridin-2-yl)methyl)naphthalene-1,4-dione]	–	> 7.30	–	6.60 to 7.30	> 7.30
